Laboratory results taken from paper PMC8805583, “Discovery of Herbacetin as a Novel SGK1 Inhibitor to Alleviate Myocardial Hypertrophy” (Advanced Science, 2021).

Experiments:
SGK1 = molecular target: T1, SGK1 (Homo sapiens, UniProt O00141); assay: Mass spectrometry-based SGK1 kinase inhibitory assay (LC/MS of phosphorylated […]); assay type: biochemical; settings: for reduction in SGK1 inhibitory activity, absence of -OH at C-8: compared with HBT
T1 sequence (O00141 1-431): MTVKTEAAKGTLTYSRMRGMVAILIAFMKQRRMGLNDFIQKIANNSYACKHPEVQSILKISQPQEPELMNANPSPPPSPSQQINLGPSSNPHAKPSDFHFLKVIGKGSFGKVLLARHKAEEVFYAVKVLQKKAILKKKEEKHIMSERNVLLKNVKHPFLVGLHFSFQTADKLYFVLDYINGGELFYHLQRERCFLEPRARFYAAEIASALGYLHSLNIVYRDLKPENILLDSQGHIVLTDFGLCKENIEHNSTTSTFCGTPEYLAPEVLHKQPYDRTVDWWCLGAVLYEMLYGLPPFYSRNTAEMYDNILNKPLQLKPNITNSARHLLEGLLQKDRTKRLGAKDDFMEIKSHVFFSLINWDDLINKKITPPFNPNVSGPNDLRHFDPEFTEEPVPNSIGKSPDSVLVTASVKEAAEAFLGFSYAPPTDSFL
From the text: To identify active compounds with SGK1 inhibitory activity from Ext.R, a novel mass‐spectrometry based kinase inhibitory assay was developed. A polypeptide sequence ([…], m/z: 618.6) derived from glycogen Synthase Kinase‐3(GSK3), a known substrate of SGK1, was optimized and synthesized. We subsequently used liquid chromatography coupled with mass spectrometry (LC/MS) to detect and quantify its phosphorylation level ([…](p)FAE, m/z:658.7) (Figure 3A).^[ [26] ^] Basal level SGK1 was supplemented to each well, and the peak area of phosphorylation was measured in the presence or absence of testing compounds. […] After investigating the major chemical constituents in Ext.R (Table S3, Supporting Information), a set of compounds in Ext.R were subsequently screened for their impacts on SGK1 activity. […] The direct interaction between HBT and SGK1 was further verified by temperature‐ and dose‐dependent cellular thermal shift assays (Figure 3E,F). We further performed a direct binding assay of HBT to SGK1 by KINOMEscan assay (Eurofins Discovery).
Synthesis of […] was prepared by Shanghai Sangong Biotech. In order to ensure the phosphorylation reaction of SGK1, SGK1 (0.25 µg mL^−1) was added to kinase buffer (25 mmol Tris [pH 7.5], 5 mmol β‐glycerolphosphate, 2 mmol DTT, 10 mmol MgCl2) with the substrate peptide […] (25 µmol) and ATP (200 µmol) and incubated for 1 h at 30 °C in the presence or absence of inhibitors. A concentration‐dependent assay for SGK1 at different concentrations (0.05, 0.1, 0.2, 0.25, and 0.3 µg mL^−1) was performed. Reactions were terminated by the addition of methyl alcohol with 0.1% trifluoroacetic acid (TFA), and supernatants were analyzed by the Agilent 1100 LC system (Agilent Technologies, USA) and a 1946D single quadrupole mass spectrometer. The acquisition parameters for LC/MS were set for positive ionization mode and selected ion monitoring (SIM) m/z values of 618.6 and 658.7 for the substrate peptide and product peptide respectively. Chromatographic separation was performed by a reversed‐phase ZORBAX SB‐C18 analytical column. The mobile phase included water containing 0.1% v/v TFA (A) and acetonitrile containing 0.1% v/v TFA (B). The flow rate was 0.6 mL min^−1. A gradient program was carried out according to the following profile: 0 min, 13% B; 15 min, 28% B; 16 min, 100% B. The constituents of Ext.R were screened by the assay to evaluate their inhibitory effects on SGK1 activity. A minimum of three replicates of each sample were analyzed and averaged together. Inhibition of SGK1 was calculated by the following equation (1) Inhibitionrate%=PC−PS/PC P C and P S represented the peak area of product peptide in the control group without test compounds and the tested sample group with various test compounds, respectively.

[1] = tested on: SGK1-dependent phosphorylation of NDRG1; parameters: method as in PMID 21865856; settings: cited from earlier work
[2] = MS-based kinase inhibitory assay

With `O=c1c(O)c(-c2ccc(O)cc2)oc2cc(O)cc(O)c12` [A1] the “reduction in SGK1 inhibitory activity, absence of -OH at C-8” value (SGK1) was “greater than 10 fold” and the IC50 (SGK1; in figure, n = 3) was 11.3 µM.

`O=c1c(O)c(-c2ccc(O)cc2)oc2c(O)c(O)ccc12` [A2, 3,7,8‐trihydroxy‐2‐(4‐hydroxyphenyl) chromen‐4‐one] gave an IC50 (SGK1; [2]) of 0.307 µM.

In the case of `O=c1cc(-c2ccc(O)cc2)oc2c(O)c(O)cc(O)c12` [A3], the “reduction in SGK1 inhibitory activity, absence of -OH at C-3” value (SGK1) is reported as “significant reduction”.

With `O=c1c(O)c(-c2ccc(O)cc2)oc2cc(O)ccc12` [A4] the “reduction in SGK1 inhibitory activity, absence of -OH at C-8” value (SGK1) was “greater than 10 fold” and the IC50 (SGK1; in figure, n = 3) was 11.6 µM.

In the case of `O=c1cc(-c2ccc(O)cc2)oc2c(O)c(O)ccc12` [A5], the “reduction in SGK1 inhibitory activity, absence of -OH at C-3” value (SGK1) is reported as “significant reduction”.

For `CCc1c(C(=O)NNC(=O)C(O)c2cc(F)cc(F)c2)ccc(O)c1C` (stereo not drawn) [EMD638683, reference compound], the IC50 [1] is listed as 3.35 µM.

For `O=C(O)/C=C/c1ccc(O)cc1` [p-coumaric acid], the IC50 (SGK1; [2]) was 8.04 µM.
